Each structure is given as a SMILES string.

The assay is described as follows: Antioxidant action using stable radicals: reduction activity of DPPH (M. S. Blois method). The class given is biochemical. The note with it: 0.1 mM DPPH solution in ethanol, absorbance at 517 nm after 20 minutes, difference from solvent control (0.5% or less DMF); read-out: 50% radical eliminating concentration. As to the method:
Test example 1 (Antioxidant action examined by using stable radicals)
Reduction activity of α,α-diphenyl-β-picrylhydrazyl (DPPH) which was a stable free radical was examined according to the M. S. Blois method (Nature, vol. 181, page 1199, 1958) and used as an index to antioxidant action. Thus, specimens were added to 3 mℓ of a 0.1 mM DPPH solution in ethanol, and absorbance at a wavelength of 517 nm was measured using a spectrophotometer after 20 minutes. The difference in absorbance from the solvent control [0.5% or less of dimethylformamide (DMF)] was taken as the reduction activity.
Background: Loss of DPPH colour is used to gauge radical scavenging.
Take `CCCCCCCCCCCCCCCCCCOC1=C(O)C(=O)O[C@@H]1[C@@H](O)CO` [compound 101, reference compound]: the IC50 is 32 µM. Next, `CCCCCCCCCCCCOC1=C(O)C(=O)O[C@@H]1[C@@H](O)CO` [compound 102]: 18 µM. To `CCCCCCCCOC1=C(O)C(=O)O[C@@H]1[C@@H](O)CO` [compound 103] belongs 19 µM; to `CCCCOC1=C(O)C(=O)O[C@@H]1[C@@H](O)CO` [compound 104], 23 µM; to `CCOC(=O)CCCCOC1=C(O)C(=O)O[C@@H]1[C@@H](O)CO` [compound 105], 20 µM. To `CCOC(=O)CCCOC1=C(O)C(=O)O[C@@H]1[C@@H](O)CO` [compound 106] belongs 21 µM. With `O=C(O)CCCOC1=C(O)C(=O)O[C@@H]1[C@@H](O)CO` [compound 107], the IC50 is 27 µM. Next, `CCOC(=O)C(C)OC1=C(O)C(=O)O[C@@H]1[C@@H](O)CO` (stereo partly drawn) [compound 108]: 19 µM; `CCCCOC(=O)COC1=C(O)C(=O)O[C@@H]1[C@@H](O)CO` [compound 109]: 18 µM; `CCCCCCCCCCOC(=O)COC1=C(O)C(=O)O[C@@H]1[C@@H](O)CO` [compound 110]: 23 µM. Next, `CCOC(=O)COC1=C(O)C(=O)O[C@@H]1[C@@H](O)CO` [compound 111]: 22 µM; `O=C1O[C@H]([C@@H](O)CO)C(OCC(=O)c2ccccc2)=C1O` [compound 112, L-3-O-benzoylmethylascorbic acid]: 23 µM. Next, `O=C1O[C@H]([C@@H](O)CO)C(OCc2cccnc2)=C1O` [compound 113, L-3-O-(3-picoyl)ascorbic acid]: 23 µM. Consider `O=C(O)CCCCCCCCCCOC1=C(O)C(=O)O[C@@H]1[C@@H](O)CO` [compound 114], for which the IC50 was found to be 24 µM. For the compound `CC(=O)COC1=C(O)C(=O)O[C@@H]1[C@@H](O)CO` [compound 115], the IC50 came out at 22 µM.

These data come from patent publication EP0411184B1, “Ascorbic acid derivative” (NIPPON HYPOX LABORATORIES INCORPORATED, priority 1989, dated 1991).
